Drawing on patent publication US12458688B2, “Epitopes” (Scancell Limited, priority 2018, dated 2025), this text covers T cell response for 9 substances.

The experiment concerns HLA transgenic mice. As to the kind of experiment: T cell response to Hcit peptides in HLA transgenic mice (screening, ex vivo ELISpot). Set-up: species or system mouse. Particulars: yes/no; Hcit peptide with CpG/MPLA. Here is the method: C57BL/6 mice (Charles River, UK), HLA-DR4 mice (Model #4149, Taconic, USA), HLA-A2/DR1 (HHDII/DR1, Pasteur Institute), HLA-A2.1+/+HLA-DP4+/+hCD4+/+ (HLA-HHDII/DP4) transgenic mice (EM: 02221, European Mouse Mutant Archive) described in patent WO2013/017545 A1 (EMMA repository, France) were used, aged between 8 and 12 weeks. Peptides were dissolved in PBS to 1 mg/ml and then emulsified (a series of dilutions) with CpG ODN 1826 and MPLA 6 μg/mouse of each (Invivogen, UK). Peptides (25 μg/mouse) were injected subcutaneously at the base of the tail. Mice were immunised at days 1, 7 and 14 for peptide immunisation. Spleens were removed for analysis at day 21 unless stated otherwise.
ELISpot assays were performed using murine IFNγ, IL-17 and IL-10 capture and detection reagents according to the manufacturer's instructions (Mabtech, Sweden). In brief, anti-IFNγ, IL-17 and IL-10 specific antibodies were coated onto wells of 96-well Immobilin-P plate. Synthetic peptides (at various concentrations) and 5×10^5 per well splenocytes were added to wells of the plate in quadruplicate Tumour target cells were added where relevant at 5×10^4/well in triplicate and plates incubated for 40 hrs at 37° C. After incubation, captured IFNγ, IL-10 and IL-17 were detected by biotinylated anti-IFNγ, IL-10 and IL-17 antibodies and developed with a streptavidin alkaline phosphatase and chromogenic substrate. Lipopolysaccharide (LPS; 5 μg/ml) was used as a positive control. For MHC blocking studies, anti-CD4 blocking antibody (GK1.5) or anti-CD4 blocking antibody (RPA-T4) for HHDII/DP4 mice which express human CD4 and anti-CD8 blocking antibody (2.43) from Bioxcell were used at 20 μg/ml. Spots were analysed and counted using an automated plate reader (Cellular Technologies Ltd).
Screening was performed to identify potential homocitrullinated vimentin epitopes in mice. Mice were immunised with pools of homocitrullinated peptides. […] Each pool was administered as three immunisations containing 20 μg of each peptide and CpG/MPLA as an adjuvant on day 1, 8 and 15. On day 21 the mice were culled and the immune responses to each peptide within the immunising pool were assessed by ex vivo ELISpot. Given that different mouse strains have different MHC repertoires a number of strains were used for screening. Peptide responses were assessed in transgenic strains expressing human DR4 or HHDII/DR1 in a C57BL/6 background (see methods).
Screening was performed to identify potential homocitrullinated ALDOA epitopes in transgenic HHDII/DP4 and HHDII/DR1 mice. Mice were immunised with pools of human homocitrullinated peptides. […] Each pool was administered as three immunisations containing 20 μg of each peptide and CpG/MPLA as an adjuvant. After 21 days the mice were culled and the immune responses to each peptide within the immunising pool were assessed by ex vivo ELISpot in HHDII/DP4 (FIG. 4b) and HHDII/DR1 mice (FIG. 4d).
Using this combination of predictions, 5 CyK8 peptides containing homocitrulline were synthesised (Table 4). Screening was performed to identify potential homocitrullinated Cyk8 epitopes in transgenic HHDII/DP4. Mice were immunised with pools of human homocitrullinated peptides. […] Each pool was administered as three immunisations containing 20 μg of each peptide and CpG/MPLA as an adjuvant. After 21 days the mice were culled and the immune responses to each peptide within the immunising pool were assessed by ex vivo ELISpot in HHDII/DP4 (FIG. 10a).

Where no end group is shown, it is not given here. [ ]: non-standard residue; d: D form. hCit = NC(=O)NCCCC[C@H](N)C(=O)O

In the case of “HACTQ-hcit-FSH(N)EEIAMATVTA (HACTQ[hCit]FSHNEEIAMATVTA; not fully specified; printed as HACTQ-hcit-FSH(N)EEIAMATVTA) [Aldolase A 238-256 Hcit]”, the T cell response result is listed as “yes”.

For the substance “hcit-DGADFA-hcit-WRCVL-hcit-IGEH ([hCit]DGADFA[hCit]WRCVL[hCit]IGEH) [Aldolase A 140-157 Hcit]”, the T cell response result was “yes”.

On to “LEQQN-hcit-MLET-hcit-WSLLQQQ-hcit-T (LEQQN[hCit]MLET[hCit]WSLLQQQ[hCit]T) [Cyk8 112-131 Hcit]”, for which the T cell response result was “Yes”.

With “NYID-Hcit-VRFLEQQN-Hcit-ILLAEL (NYID[hCit]VRFLEQQN[hCit]ILLAEL) [Vimentin 116-135 Hcit]”, the T cell response result was “yes”.

Consider “hcit-LALDIEIATYR-hcit-LLEGEE ([hCit]LALDIEIATYR[hCit]LLEGEE) [Cyk8 381-399 Hcit]”, for which the T cell response result is listed as “Yes”.

“EIN-hcit-RTEMENEFVLI-hcit-hcit-DVDE (EIN[hCit]RTEMENEFVLI[hCit][hCit]DVDE) [Cyk8 182-202 Hcit]”: the T cell response entry is listed as “Yes”.

As for “IGGVILFHETLYQ-hcit-ADDGRP (IGGVILFHETLYQ[hCit]ADDGRP) [Aldolase A 74-93 Hcit]”, the T cell response result is “yes”.

Turning to “LREYQELMNV-hcit-LALDIEI (LREYQELMNV[hCit]LALDIEI) [Cyk8 371-388 Hcit]”, the T cell response result was “Yes”.

In the case of “KFASFID-Hcit-VRFLEQQN-Hcit-MLE (KFASFID[hCit]VRFLEQQN[hCit]MLE) [Cyk8 101-120 Hcit]”, the T cell response result is recorded as “Yes”.
